The source made the active and inactive calls. The calls are words filed in the database; no cut-off is given here.
Tests used:
[1] = system: PBMC; experiment: Stimulation of immune response in human PBMC assessed as induction of IFN-gamma production at 150 ug/ml after 24 hrs; assay type: functional, cell-based
[2] = system: PBMC; experiment: Stimulation of immune response in human PBMC assessed as induction of MIP1beta production at 150 ug/ml after 24 hrs; assay type: functional, cell-based
[3] = species on record: Homo sapiens; experiment: Stimulation of immune response in human pDC assessed as induction of IFNalpha production at 150 ug/ml after 24 hrs; assay type: functional
[4] = system: Mus musculus; experiment: Stimulation of immune response in C57BL/6 mouse assessed as induction of serum IL10 production at 50 mg/kg, sc after 2 hrs by luminex multiplex assay; assay type: functional, organism-based; design: dose 50 mg/kg
[5] = species on record: Homo sapiens; experiment: Stimulation of immune response in human pDC assessed as induction of IFN-gamma production at 150 ug/ml after 24 hrs; assay type: functional
[6] = species on record: Homo sapiens; experiment: Stimulation of immune response in human pDC assessed as induction of TNFalpha production at 150 ug/ml after 24 hrs; assay type: functional
[7] = target: T1, Toll-like receptor 7 (Homo sapiens) (UniProt Q9NYK1); experiment: Agonist activity at human TLR7 expressed in HEK293XL cells assessed as NF-kappaB activation after 18 hrs; assay type: functional, cell-based
T1 sequence (whole entry): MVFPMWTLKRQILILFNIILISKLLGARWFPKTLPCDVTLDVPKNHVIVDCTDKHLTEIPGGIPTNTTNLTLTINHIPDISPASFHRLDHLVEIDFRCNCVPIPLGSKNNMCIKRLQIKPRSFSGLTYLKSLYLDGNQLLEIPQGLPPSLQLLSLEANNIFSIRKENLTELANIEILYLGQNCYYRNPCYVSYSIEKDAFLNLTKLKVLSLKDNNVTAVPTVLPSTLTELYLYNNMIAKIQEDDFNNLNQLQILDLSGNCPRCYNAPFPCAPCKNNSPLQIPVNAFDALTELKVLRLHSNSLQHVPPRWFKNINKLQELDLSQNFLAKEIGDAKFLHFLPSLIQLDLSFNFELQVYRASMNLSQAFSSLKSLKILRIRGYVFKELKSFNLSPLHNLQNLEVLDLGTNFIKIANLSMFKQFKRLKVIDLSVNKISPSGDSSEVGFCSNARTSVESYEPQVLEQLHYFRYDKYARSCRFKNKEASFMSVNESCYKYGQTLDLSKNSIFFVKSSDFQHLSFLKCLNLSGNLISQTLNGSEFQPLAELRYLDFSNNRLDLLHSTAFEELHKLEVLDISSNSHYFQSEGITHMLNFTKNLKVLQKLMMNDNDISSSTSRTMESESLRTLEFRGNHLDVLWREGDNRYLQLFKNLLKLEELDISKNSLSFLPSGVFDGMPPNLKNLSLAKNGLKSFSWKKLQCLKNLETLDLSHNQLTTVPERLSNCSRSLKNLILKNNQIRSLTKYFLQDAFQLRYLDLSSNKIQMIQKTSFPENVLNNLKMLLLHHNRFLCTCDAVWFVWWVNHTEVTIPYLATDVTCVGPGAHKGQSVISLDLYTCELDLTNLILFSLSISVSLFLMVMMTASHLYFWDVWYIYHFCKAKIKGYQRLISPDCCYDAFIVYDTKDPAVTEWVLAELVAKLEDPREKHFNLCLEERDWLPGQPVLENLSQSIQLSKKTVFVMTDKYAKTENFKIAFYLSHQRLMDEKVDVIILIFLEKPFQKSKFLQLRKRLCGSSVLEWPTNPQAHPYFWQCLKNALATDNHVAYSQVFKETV

[8] = system: PBMC; experiment: Stimulation of immune response in human PBMC assessed as induction of IL10 production at 150 ug/ml after 24 hrs; assay type: functional, cell-based
[9] = species on record: Homo sapiens; experiment: Stimulation of immune response in human pDC assessed as induction of MIP1beta production at 150 ug/ml after 24 hrs; assay type: functional
[10] = species on record: Homo sapiens; experiment: Stimulation of immune response in human pDC assessed as induction of IL12 production at 150 ug/ml after 24 hrs; assay type: functional
[11] = system: PBMC; experiment: Stimulation of immune response in human PBMC assessed as induction of TNFalpha production at 150 ug/ml after 24 hrs; assay type: functional, cell-based
[12] = species on record: Homo sapiens; experiment: Stimulation of immune response in human pDC assessed as induction of MIP1alpha production at 150 ug/ml after 24 hrs; assay type: functional
[13] = system: PBMC; experiment: Stimulation of immune response in human PBMC assessed as induction of IL12 production at 150 ug/ml after 24 hrs; assay type: functional, cell-based
[14] = system: PBMC; experiment: Stimulation of immune response in human PBMC assessed as induction of MIP1alpha production at 150 ug/ml after 24 hrs; assay type: functional, cell-based
[15] = system: PBMC; experiment: Stimulation of immune response in human PBMC assessed as induction of IL8 production at 150 ug/ml after 24 hrs; assay type: functional, cell-based
[16] = system: PBMC; experiment: Stimulation of immune response in human PBMC assessed as induction of MCP1 production at 150 ug/ml after 24 hrs; assay type: functional, cell-based
[17] = system: PBMC; experiment: Stimulation of immune response in human PBMC assessed as induction of IFNalpha production at 150 ug/ml after 24 hrs; assay type: functional, cell-based
[18] = target: T2, Toll-like receptor 8 (Homo sapiens) (UniProt Q9NR97); experiment: Agonist activity at human TLR8 expressed in HEK293XL cells assessed as NF-kappaB activation after 18 hrs; assay type: functional, cell-based
T2 sequence (whole entry): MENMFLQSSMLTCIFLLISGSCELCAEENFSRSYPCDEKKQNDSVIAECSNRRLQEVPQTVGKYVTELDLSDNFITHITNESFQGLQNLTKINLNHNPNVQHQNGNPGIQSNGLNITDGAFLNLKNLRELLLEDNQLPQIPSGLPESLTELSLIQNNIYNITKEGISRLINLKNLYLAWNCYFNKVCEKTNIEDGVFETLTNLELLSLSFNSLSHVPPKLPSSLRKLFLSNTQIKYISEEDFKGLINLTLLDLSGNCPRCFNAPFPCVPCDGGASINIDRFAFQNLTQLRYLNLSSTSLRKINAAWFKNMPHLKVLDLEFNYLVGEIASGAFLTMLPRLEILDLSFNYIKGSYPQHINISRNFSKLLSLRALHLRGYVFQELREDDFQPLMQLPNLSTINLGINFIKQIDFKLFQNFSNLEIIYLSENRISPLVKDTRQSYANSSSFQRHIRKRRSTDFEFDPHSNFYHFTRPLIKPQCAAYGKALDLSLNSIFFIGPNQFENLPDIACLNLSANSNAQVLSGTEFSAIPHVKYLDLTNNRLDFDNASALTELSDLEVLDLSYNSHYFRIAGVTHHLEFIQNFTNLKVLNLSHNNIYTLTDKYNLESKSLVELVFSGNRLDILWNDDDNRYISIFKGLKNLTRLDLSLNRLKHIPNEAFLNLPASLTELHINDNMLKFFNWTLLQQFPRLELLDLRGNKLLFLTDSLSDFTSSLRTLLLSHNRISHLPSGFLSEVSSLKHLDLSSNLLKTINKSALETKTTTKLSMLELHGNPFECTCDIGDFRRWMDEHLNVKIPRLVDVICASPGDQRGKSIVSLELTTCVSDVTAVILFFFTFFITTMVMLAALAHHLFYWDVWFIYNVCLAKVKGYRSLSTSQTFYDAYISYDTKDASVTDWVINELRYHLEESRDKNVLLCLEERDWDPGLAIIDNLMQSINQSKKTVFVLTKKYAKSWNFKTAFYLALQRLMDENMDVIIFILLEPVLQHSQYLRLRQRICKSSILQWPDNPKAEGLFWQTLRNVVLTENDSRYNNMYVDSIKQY

[19] = system: PBMC; experiment: Stimulation of immune response in human PBMC assessed as induction of IL2R level at 150 ug/ml after 24 hrs; assay type: functional, cell-based
[20] = system: PBMC; experiment: Stimulation of immune response in human PBMC assessed as induction of RANTES production at 150 ug/ml after 24 hrs; assay type: functional, cell-based
[21] = system: PBMC; experiment: Stimulation of immune response in human PBMC assessed as induction of IL1-beta production at 150 ug/ml after 24 hrs; assay type: functional, cell-based
[22] = system: Mus musculus; experiment: Stimulation of immune response in C57BL/6 mouse assessed as induction of serum IL12 production at 50 mg/kg, sc after 2 hrs by luminex multiplex assay; assay type: functional, organism-based; design: dose 50 mg/kg
[23] = Stability in human serum assessed as full-length compound remaining after 10 mins by anion-exchange HPLC; assay type: ADME, cell-free; details: read-out: Stability
[24] = system: Mus musculus; experiment: Stimulation of immune response in C57BL/6 mouse assessed as induction of serum chemokine KC production at 50 mg/kg, sc after 2 hrs by luminex multiplex assay; assay type: functional, organism-based; design: dose 50 mg/kg

**Q.** Which Activity [1] does the source give for `Nc1ccn([C@@H]2O[C@H](COP(=O)(S)O[C@H]3[C@@H](O)[C@H](n4ccc(=O)[nH]c4=O)O[C@@H]3COP(=O)(S)O[C@H]3[C@H](O)[C@H](n4cnc5c(=O)[nH]c(N)nc54)O[C@@H]3COP(=O)(S)O[C@H]3[C@H](O)[C@H](n4ccc(N)nc4=O)O[C@@H]3COP(=O)(S)O[C@H]3[C@@H](O)[C@H](n4ccc(=O)[nH]c4=O)O[C@@H]3COP(=O)(S)O[C@H]3[C@@H](O)[C@H](n4ccc(=O)[nH]c4=O)O[C@@H]3COP(=O)(S)O[C@H]3[C@@H](O)[C@H](n4cnc5c(=O)[nH]c(N)nc54)O[C@@H]3COP(=O)(S)O[C@H]3[C@@H](O)[C@H](n4ccc(=O)[nH]c4=O)O[C@@H]3COP(=O)(S)O[C@H]3[C@@H](O)[C@H](n4cnc5c(=O)[nH]c(N)nc54)O[C@@H]3COP(=O)(S)OCC(O)COP(=O)(S)O[C@H]3[C@@H](O)[C@H](n4cnc5c(=O)[nH]c(N)nc54)O[C@@H]3COP(=O)(S)O[C@H]3[C@@H](O)[C@H](n4ccc(=O)[nH]c4=O)O[C@@H]3COP(=O)(S)O[C@H]3[C@@H](O)[C@H](n4cnc5c(=O)[nH]c(N)nc54)O[C@@H]3COP(=O)(S)O[C@H]3[C@@H](O)[C@H](n4ccc(=O)[nH]c4=O)O[C@@H]3COP(=O)(S)O[C@H]3[C@@H](O)[C@H](n4ccc(=O)[nH]c4=O)O[C@@H]3COP(=O)(S)O[C@H]3[C@H](O)[C@H](n4ccc(N)nc4=O)O[C@@H]3COP(=O)(S)O[C@H]3[C@@H](O)[C@H](n4cnc5c(=O)[nH]c(N)nc54)O[C@@H]3COP(=O)(S)O[C@H]3[C@@H](O)[C@H](n4ccc(=O)[nH]c4=O)O[C@@H]3COP(=O)(S)O[C@H]3[C@H](O)[C@H](n4ccc(N)nc4=O)O[C@@H]3COP(=O)(S)O[C@H]3[C@@H](O)[C@H](n4cnc5c(=O)[nH]c(N)nc54)O[C@@H]3COP(=O)(S)O[C@H]3[C@@H](O)[C@H](n4ccc(=O)[nH]c4=O)O[C@@H]3CO)[C@@H](OP(=O)(S)OC[C@H]3O[C@@H](n4cnc5c(=O)[nH]c(N)nc54)[C@H](O)[C@@H]3OP(=O)(S)OC[C@H]3O[C@@H](n4ccc(=O)[nH]c4=O)[C@H](O)[C@@H]3OP(=O)(O)S)[C@@H]2O)c(=O)n1` (some centres undefined) here?
**A.** Active

**Q.** What about the Activity [2] of the same compound?
**A.** Active

**Q.** What about the Activity [3] of the same compound?
**A.** Active

**Q.** What about the Activity [4] of the same compound?
**A.** Active

**Q.** What about the Activity [5] of the same compound?
**A.** Active

**Q.** And the Activity [6]?
**A.** Active

**Q.** What about the Activity [7] of the same compound?
**A.** Dose-dependent effect

**Q.** What about the Activity [8] of the same compound?
**A.** Active

**Q.** And the Activity [9]?
**A.** Active

**Q.** What about the Activity [10] of the same compound?
**A.** Active

**Q.** And the Activity [11]?
**A.** Active

**Q.** What about the Activity [12] of the same compound?
**A.** Active

**Q.** What about the Activity [13] of the same compound?
**A.** Active

**Q.** What about the Activity [14] of the same compound?
**A.** Active

**Q.** And the Activity [15]?
**A.** Active

**Q.** And the Activity [16]?
**A.** Active

**Q.** What about the Activity [17] of the same compound?
**A.** Active

**Q.** What about the Activity [18] of the same compound?
**A.** Dose-dependent effect

**Q.** And the Activity [19]?
**A.** Active

**Q.** What about the Activity [20] of the same compound?
**A.** Active

**Q.** And the Activity [21]?
**A.** Active

**Q.** And the Activity [22]?
**A.** Active

**Q.** And the remaining at 10 min [23]?
**A.** 76%

**Q.** And the Activity [24]?
**A.** Active
